Data on one compound can be found in US20110150974A1, “Agent For Oral Mucosal Administration” (DAIICHI PHARMACEUTICAL CO., LTD., priority 2004, published 2011).

Structures are written as SMILES. Counter-ions that a name gives are not always drawn.

Data set [1] relates to xerostomia caused by Sjogren's syndrome. The settings on record: oral preparations, cited from earlier work.
The nature of data set [2]: Drug distribution to each tissue in rats (oral mucosal vs oral administration). The format is in vivo, Rats (male Wistar). Here is the method: Rats (9-week old male Wistar rats, body weight: 172 to 205 g) were fixed at the dorsal position under urethane (1.25 g/kg i.p.) anesthesia. The test preparation was administered, and plasma and tissues (minor salivary glands, stomach, small intestine, liver, kidney) were collected 0.5, 1, 2, 4 and 8 hours later for observation of the condition of the application site of the preparation and measurement of the concentration in each tissue. The surface of the minor salivary glands was rinsed with physiological saline, and contents were removed from the stomach and the small intestine, which were rinsed in physiological saline. Each collected tissue was stored at −40° C. before the measurement. The medicament concentration in each tissue was measured by LC/MS/MS.

A further data set has as its system Human Oral Mucosa. Briefly: Influences of pH and additives on drug absorption from human oral mucosa (gargle test). The settings on record: healthy volunteers, FIG. 2. In kind it is in vivo. The procedure:
Healthy volunteers were made to clean their teeth and then gargle with 10 mL of each test solution (Examples 1 to 4) for 2 minutes, the gargles were collected, and then the oral cavity was washed twice with 10 mL of distilled water for 10 seconds. All the mouth wash was added to the test solution after gargling. The amounts of cevimeline hydrochloride in the test solutions before and after the gargling were measured by HPLC, and the difference between the samples was calculated as the amount of absorption to the oral mucosa.

For the compound `CC1OC2(CS1)CN1CCC2CC1` (racemic) [cevimeline hydrochloride hydrate, (±)-cis-2-methylspiro(1,3-oxathiolane-5,3′-quinuclidine) monohydrochloride monohydrate], in data set [1] (JP 61-280497 and 06-024981), the “saliva secretion promoting effect” value is recorded as “confirmed”. For the same compound, the “adverse reactions in the digestive system” value in data set [1] (may cause) was “nausea, abdominal pain, and vomiting”. Also, the “mucosal irritancy at the application site” value in data set [2] (oral mucosal administration (patch of Example 9)) is on record as “no mucosal irritancy was observed”. In data set [2] (oral mucosal administration (patch of Example 9) compared with oral administration, 0.5-8 hours, FIG. 5), the “drug concentration in the stomach” value was “lower”. Further, in data set [2] (oral mucosal administration (patch of Example 9) compared with oral administration, 0.5-8 hours, FIG. 6), the “drug concentration in the small intestine” value was “lower”. Besides, the “drug concentration in the kidney” value in data set [2] (oral mucosal administration (patch of Example 9) compared with oral administration, 0.5-8 hours, FIG. 8) is “lower”. In addition, the “drug concentration in the liver” value in data set [2] (oral mucosal administration (patch of Example 9) compared with oral administration, 0.5-8 hours, FIG. 9) is given as “lower”. Further, the plasma concentrations result in data set [2] (oral mucosal administration (patch of Example 9) compared with oral administration, changed less in the initial period, FIG. 10) is reported as “remained constantly low”. Further, in data set [2] (oral mucosal administration (patch of Example 9), FIG. 11), the “concentrations in the minor salivary glands” value is “markedly high”. In addition, the “medicament concentrations in the stomach, small intestine, kidney and liver in the initial period after administration” value in data set [2] (oral mucosal administration (patch of Example 9), up to 2 hours) is recorded as “apparently low”. Also, the “amount of absorption to the oral mucosa” value in the data set with Human Oral Mucosa (pH 8.0, triethanolamine/hydrochloric acid buffer compared with McIlvaine buffer, gargle 10 mL for 2 minutes) is “larger”. Besides, the “amount absorbed from oral mucosa” value with Human Oral Mucosa (pH 8.0 compared with pH 6.0, gargle) is given as “more”. In the data set with Human Oral Mucosa (triethanolamine concentration of 1.5% compared with 0.3%, pH 8.0, gargle), the oral mucosal absorbability result is “better”.
